Test results as given in US20240309360A1, “TRANS-ACTIVATORS AND METHODS AND USE THEREOF” (THE GOVERNING COUNCIL OF THE UNIVERSITY OF TORONTO, priority 2021, published 2024).

Tested on: EGFP reporter (7×TetO array, basal CMV promoter) in HEK293T reporter cell line
Test: TAD-seq pooled activation screen of 60-aa fragments fused to PYL1
Type: cell-based, human
Conditions: for logFC high GFP / logFC medium GFP: log 2 fold change of counts, 100 μM ABA 48 hours; for logFC high GFP: sorted high GFP cells (top 1%) vs unsorted cells; for logFC medium GFP: sorted medium GFP cells (top 2-5%) vs unsorted cells; for Hit medium GFP: medium GFP population (top 2-5%); for Hit high GFP: high GFP population (top 1%); call rule not given here
Source text: A fragment library of 75 activators identified in our screen was generated, using 60 amino-acid tiles every 20 aa such that every amino acid was represented by three different fragments (FIG. 3A). The pooled fragment library was fused to PYL1 and recruited to the same GFP reporter used in the original ORFeome screen (FIG. 3A). […] The GFP positive population was sorted into two independent replicates, and fragments in each population were quantified by sequencing. However, in contrast to the ORFeome screen, both high GFP cells (top 1%) and medium GFP cells (top 2-5%) were sorted to potentially identify transactivators of different strength.
Activation domain tiling library generation. A tiling library was generated from 75 proteins identified as activators in the ORFeome screen. Oligonucleotides containing a 5′ adapter […] (SEQ ID NO: 23) and a 3′ adapter […] (SEQ ID NO: 24) to generate a 5′ adapter ([…]) (SEQ ID NO: 11) and a 3′ adapter ([…]) (SEQ ID NO: 12) were synthesized as pooled libraries (Twist Biosciences). 6×50 μl PCR reactions were set up using NEBNext Ultra II Q5 master mix (New England Biolabs) with 5 nM oligos as template. PCR conditions were optimized to find the lowest cycle with a clean visible product at the expected 300 bp length. The thermocycling condition was an initial 30 s at 98° C., then 2 cycles of 98° C. for 10 s, 63° C. for 20 s, and 72° C. for 15 s, followed by 10 more cycles of 98° C. for 10 s and 72° C. for 30 s with a final extension at 72° C. for 5 min. Primers were designed to have Gateway compatible flanking sequences. The resulting libraries were gel extracted by QIAgen gel extraction kit after loading on a 2% TAE gel for 2 hrs at 60V and subsequently cloned into pDONR221 using 20 separate BP reactions in total of 5 μl reactions. The entry plasmid pool was transformed after an overnight reaction into DHSalpha competent E. coli and incubated overnight on LB agar plates containing kanamycin ([…]). Colonies were collected and plasmid DNA purified. 20 LR reactions were then set up as described in the previous section. Each reaction was transformed into NEB 10-beta chemically competent E. coli and grown on LB agar plates containing carbenicillin ([…]) overnight at 30° C. Colonies were counted to ensure >200-fold coverage at each step of cloning, pooled and maxiprepped.
Pooled activation screens. ORFeome and transactivation tiling libraries tagged at the C-terminus with PYL1 were packaged into lentiviral particles. A clonal EGFP reporter cell line stably co-expressing ABI-dCas9 and a gRNA targeting the promoter were transduced at low multiplicity of infection (MOI) with approximately 30% cell survival after puromycin (1 μg/mL) selection. Untransduced cells under the same condition were fully eliminated. Sufficient cells were transduced to maintain >500 fold coverage of the libraries. Recruitment was induced by treating cells with 100 μM abscisic acid (ABA, Sigma) for 48 hours. In parallel, a control batch of cells were treated with equal total volume of DMSO. Cells were then washed in PBS, treated with dissociation buffer (1 mM EDTA, 10 mM KCl, 150 mM NaCl, 5 mM sodium bicarbonate, 0.1% glucose) and resuspended in flow buffer (5 mM EDTA, 25 mM HEPES pH 7, 1% BSA, PBS). High GFP population for each library, top 1% for ORFeome and two bins of top 1% and the next 4% for the TAD screen, were sorted and their genomic DNA directly extracted using QIAmp DNA Blood Mini Kit (QIAGEN).
TAD sequencing. Performed nested PCR on the purified genomic DNA using primers targeting T7 promoter and PYL1 of the backbone vector in the first step creating a ˜470 bp product. Products of the first reaction were then pooled and amplified for an additional 10 steps using primers targeting outside the Gateway sites creating a ˜300 bp product. Libraries were quantified on Qubit dsDNA Broad Range kit and paired-end sequenced on an Illumina MIseq with a custom PAGE-purified R1 sequencing primer. […]

| Substance | logFC high GFP | logFC medium GFP | Hit medium GFP | Hit high GFP |
| --- | --- | --- | --- | --- |
| MYCBP-1: 60-aa TAD-seq fragment of MYCBP (MAHYKAADSKREQFRRYLEKSGVLDTLTKVLVALYEEPEKPNSALDFLKHHLGAATPENP; listed as Homo sapiens) | 1.017 | 0.73 | hit |  |
| MYCL1-1: 60-aa TAD-seq fragment of MYCL1 (MDYDSYQHYFYDYDCGEDFYRSTAPSEDIWKKFELVPSPPTSPPWGLGPGAGDPAPGIGP; listed as Homo sapiens) | 1.137 | 0.7968 | hit |  |
| MYOD1-2: 60-aa TAD-seq fragment of MYOD1 (CSFATTDDFYDDPCFDSPDLRFFEDLDPRLMHVGALLKPEEHSHFPAAVHPAPGAREDEH; listed as Homo sapiens) | 0.7025 | 0.8486 | hit |  |
| NEUROG3-5: 60-aa TAD-seq fragment of NEUROG3 (RRSRRKKANDRERNRMHNLNSALDALRGVLPTFPDDAKLTKIETLRFAHNYIWALTQTLR; listed as Homo sapiens) | 0.06039 | 0.6713 | hit |  |
| ATF6-1: 60-aa TAD-seq fragment of ATF6 (MGEPAGVAGTMESPFSPGLFHRLDEDWDSALFAELGYFTDTDELQLEAANETYENNFDNL; listed as Homo sapiens) | 3.145 | 1.563 | hit | hit |
| HSF1-25: 60-aa TAD-seq fragment of HSF1 (AQPLFLLDPGSVDTGSNDLPVLFELGEGSYFSEGDGFAEDPTISLLTGSEPPKAKDPTVS; listed as Homo sapiens) | 0.7725 | 1.153 | hit |  |
| ATXN7L3-4: 60-aa TAD-seq fragment of ATXN7L3 (FEIVDQPGLDIFGQVFNQWKSKECVCPNCSRSIAASRFAPHLEKCLGMGRNSSRIANRRI; listed as Homo sapiens) | 0.7641 | 0.7514 | hit |  |
| ATMIN-24: 60-aa TAD-seq fragment of ATMIN (NPGPDTQLPSGPAQNPGIDFDIEEFFSASNIQTQTEESELSTMTTEPVLESLDIETQTDF; listed as Homo sapiens) | 1.233 | 0.988 | hit |  |
| ELF4-1: 60-aa TAD-seq fragment of ELF4 (MAITLQPSDLIFEFASNGMDDDIHQLEDPSVFPAVIVEQVPYPDLLHLYSGLELDDVHNG; listed as Homo sapiens) | 0.6626 | 0.7287 | hit |  |
| ELF4-2: 60-aa TAD-seq fragment of ELF4 (DDIHQLEDPSVFPAVIVEQVPYPDLLHLYSGLELDDVHNGIITDGTLCMTQDQILEGSFL; listed as Homo sapiens) | 1.467 | 1.364 | hit | hit |
| NPAS4-36: 60-aa TAD-seq fragment of NPAS4 (DNMFLEETPVEDIFMDLSTPDPSEEWGSGDPEAEGPGGAPSPCNNLSPEDHSFLEDLATY; listed as Homo sapiens) | 0.671 | 1.209 | hit |  |
| FAM22F-19: 60-aa TAD-seq fragment of FAM22F (PRPQRPAETNAHLPPPRPQRPAETKVPEEIPPEVVQEYVDIMEELLGSHPGDTGEPEGQR; listed as Homo sapiens) | 0.9998 | 0.9884 | hit |  |
